IC50 data for 15 compounds are collected here from patent US9376454B2, “Beta-lactamase inhibitors” (priority 2013, dated 2016).

Usually IC50 stands for the concentration needed to halve the response being measured.

Bounds are passed on as bounds.

Type in all cases: biochemical
The target of one assay is T1, KPC-2 β-lactamase (Klebsiella pneumoniae, UniProt Q9F663).
T1 construct: made in house; host or cells: E. coli BL21(DE3)
In words: β-Lactamase inhibition enzyme assay, KPC-2. Conditions: imipenem as substrate, 300 nm; 15 min at 37° C. with enzyme, PBS pH 7.4; read-out: Class A KPC-2 IC50. On the procedure: (§1) For SHV-5, Kpc-2, p99AmpC and OXA-1 β-lactamases, E. coli BL21(DE3) bacterial cells carrying expression plasmids (expressed as native untagged proteins) for the individual β-lactamases were grown in 1 L of Superbroth (Teknova Inc. Hollister, Calif.) supplemented with 100 μg/ml kanamycin selection and 1×5052 (0.5% glycerol, 0.05% glucose and 0.2% α-lactose) at 35° C. for 18-20 hours. Cells were harvested by centrifugation (4,000×g, 4° C., 20 min), resuspended in 50 ml of 10 mM HEPES pH 7.5 ( 1/20 of the initial volume). The cells were lysed by sonication (5 pulses of 45 seconds) at 45 W on ice. The lysates were clarified by centrifugation at 10,000×g for 40 minutes at 4° C. Samples were diluted 5-fold in 50 mM sodium acetate pH 5.0, stored overnight at 4° C., after which they were centrifuged at 10,000×g for 30 minutes to clarify, and filtered through 0.45 μm filters. The samples were loaded onto a 5 ml Capto S sepharose cation exchange column (GE Healthcare) pre-equilibrated with 50 mM sodium acetate pH 5.0. The column was washed with 5 column volumes of 50 mM sodium acetate pH 5.0 to wash out unbound protein and a linear gradient of NaCl (0 to 500 mM) was used to elute the protein (over 16 CV) from the column. Fractions were assayed for β-lactamase activity using Centa (Calbiochem, Gibbstown, N.J.) or Nitrocefin (EMD Millipore chemicals, Darmstadt, Germany) as a reporter β-lactamase substrate for activity in the isolated fractions. Active fractions were pooled, concentrated and further purified by gel filtration chromatography on a Superdex 75 prep grade gel filtration column (GE Healthcare, Piscataway, N.J.) pre-equilibrated in 50 mM Hepes pH 7.5, 150 mM NaCl. Active fractions were pooled concentrated, quantitated by BCA protein determination (Thermo Scientific, Rockford, Ill.), dialyzed into PBS and frozen at −80° C. in 20% glycerol until use.
(§2) An equal volume of diluted enzyme stock was added, and the plates were incubated at 37° C. for 15 min. Nitrocefin was used as substrate for p99 AmpC, VIM-2 and OXA-1 and dispensed into each well at a final concentration of 100 μM. Absorbance at 486 nm was immediately monitored for 10 min using a Biotek Powerwave XS2 microplate spectrophotometer using the GEN5 softweare package (Biotek Instruments, Winooski Vt.). In an analogous fashion, imipenem was used as substrate for Kpc-2 and Cefotaxime was used for SHV-5, while changes in absorbance upon hydrolysis of the β-lactam ring were monitored at 300 nm and 260 nm respectively in UV-transparent 96-well microtiter assay plates. Maximum rates of hydrolysis were compared to those in control wells (without inhibitors), and percentages of enzyme inhibition were calculated for each concentration of inhibitor. The concentration of inhibitor needed to reduce the initial rate of hydrolysis of substrate by 50% (IC50) was calculated as the residual activity of β-lactamase at 486 nm using GraFit version 7 kinetics software package (Erithacus Software, Surrey, UK).

Assay [1] has as its target T2, VIM-2 metallo β-lactamase (Pseudomonas aeruginosa, UniProt Q9K2N0).
T2 construct: made in house; host or cells: E. coli BL21(DE3)
As to the kind of experiment: β-Lactamase inhibition enzyme assay, VIM-2. Conditions: Nitrocefin 100 μM as substrate, 486 nm; 15 min at 37° C. with enzyme, PBS pH 7.4; read-out: Class B VIM-2 IC50. The protocol:
as §1
For Vim-2 metallo β-lactamase, the procedure was identical with the following exceptions, first the protein was not pH adjusted to pH 5 with 50 mM sodium acetate, second, the chromatography step was changed to a 5 ml Q sepharose anion exchange column pre-equilibrated with 50 mM Hepes pH 7.5, and elution of the protein was achieved by a linear gradient of NaCl (0-600 mM). Finally, the VIM-2 purification required a second run (3rd step) on the Q sepharose anion exchange column to achieve acceptable purity (>90%).
as §2

In the next assay the target is T3, SHV-5 β-lactamase (Klebsiella pneumoniae, UniProt P0A3M1).
T3 construct: made in house; host or cells: E. coli BL21(DE3)
T3 sequence (P0A3M1 22-286): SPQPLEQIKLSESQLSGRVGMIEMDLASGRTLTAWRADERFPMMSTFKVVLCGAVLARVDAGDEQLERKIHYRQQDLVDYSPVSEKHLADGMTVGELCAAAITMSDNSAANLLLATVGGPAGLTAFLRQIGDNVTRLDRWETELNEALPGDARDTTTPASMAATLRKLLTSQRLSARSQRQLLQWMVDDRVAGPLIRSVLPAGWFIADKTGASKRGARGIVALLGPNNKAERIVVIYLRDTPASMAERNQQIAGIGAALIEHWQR
As to the kind of experiment: β-Lactamase inhibition enzyme assay, SHV-5. On the procedure:
as §1, §2

A further assay deals with T4, p99 AmpC β-lactamase (Enterobacter cloacae, UniProt P05364).
T4 construct: made in house; host or cells: E. coli BL21(DE3)
T4 sequence (P05364 21-381): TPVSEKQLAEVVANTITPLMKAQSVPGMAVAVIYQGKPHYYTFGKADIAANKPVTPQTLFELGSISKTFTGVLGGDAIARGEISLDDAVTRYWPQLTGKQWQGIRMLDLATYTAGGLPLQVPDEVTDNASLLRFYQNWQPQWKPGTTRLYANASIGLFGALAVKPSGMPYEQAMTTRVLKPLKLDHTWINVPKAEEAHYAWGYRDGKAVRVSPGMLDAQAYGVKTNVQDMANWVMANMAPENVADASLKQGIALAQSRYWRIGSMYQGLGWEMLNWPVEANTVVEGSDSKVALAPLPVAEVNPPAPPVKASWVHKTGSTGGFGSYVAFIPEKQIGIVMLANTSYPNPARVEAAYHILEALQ
In words: β-Lactamase inhibition enzyme assay, p99 AmpC. On the procedure: as §1, §2

The next assay concerns the target T5, OXA-1 β-lactamase (Escherichia coli, UniProt P13661).
T5 construct: made in house; host or cells: E. coli BL21(DE3)
As to the kind of experiment: β-Lactamase inhibition enzyme assay, OXA-1. Conditions: Nitrocefin 100 μM as substrate, 486 nm; 15 min at 37° C. with enzyme, PBS pH 7.4; read-out: Class D OXA-1 IC50. On the procedure: as §1, §2

T5 sequence (P13661 26-276): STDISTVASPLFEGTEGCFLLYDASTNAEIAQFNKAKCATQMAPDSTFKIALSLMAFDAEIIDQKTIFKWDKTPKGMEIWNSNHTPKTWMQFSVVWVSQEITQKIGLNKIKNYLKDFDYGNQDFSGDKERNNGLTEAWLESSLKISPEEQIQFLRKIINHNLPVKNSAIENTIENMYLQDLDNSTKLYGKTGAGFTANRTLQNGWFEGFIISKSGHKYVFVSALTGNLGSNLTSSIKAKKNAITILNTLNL
T1 sequence (Q9F663 25-293, looked up): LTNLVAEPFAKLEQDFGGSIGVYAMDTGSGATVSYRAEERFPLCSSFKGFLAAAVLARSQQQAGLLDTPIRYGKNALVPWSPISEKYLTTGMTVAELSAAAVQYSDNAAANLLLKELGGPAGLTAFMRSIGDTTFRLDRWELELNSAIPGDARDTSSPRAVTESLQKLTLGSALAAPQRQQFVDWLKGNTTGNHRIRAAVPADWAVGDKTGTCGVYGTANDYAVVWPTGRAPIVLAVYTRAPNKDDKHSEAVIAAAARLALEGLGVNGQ

In the case of `O=C(O)c1cccc2c1OB(O)[C@@H](NC(=O)C1(c3ccccc3)CC1)C2` [Example 1, (R)-2-hydroxy-3-(1-phenylcyclopropanecarboxamido)-3,4-dihydro-2H-benzo[e][1,2]oxaborinine-8-carboxylic acid], the IC50 at KPC-2 β-lactamase is less than 100 nM; in assay [1], 100 to 1000 nM; against SHV-5 β-lactamase, less than 100 nM; against p99 AmpC β-lactamase, less than 100 nM; on OXA-1 β-lactamase, less than 100 nM.
Take `O=C(O)c1cccc2c1OB(O)[C@@H](NC(=O)C(F)(F)c1ccccc1)C2` [Example 2, (R)-3-(2,2-difluoro-2-phenylacetamido)-2-hydroxy-3,4-dihydro-2H-benzo[e][1,2]oxaborinine-8-carboxylic acid]: the IC50 on KPC-2 β-lactamase is less than 100 nM; in assay [1] it was 1000 to 10000 nM; against SHV-5 β-lactamase, less than 100 nM; at p99 AmpC β-lactamase, less than 100 nM; at OXA-1 β-lactamase, less than 100 nM.
`O=C(N[C@H]1Cc2cccc(C(=O)O)c2OB1O)c1csc2c1CCNC2` [Example 4, (R)-2-hydroxy-3-(4,5,6,7-tetrahydrothieno[2,3-c]pyridine-3-carboxamido)-3,4-dihydro-2H-benzo[e][1,2]oxaborinine-8-carboxylic acid]: the IC50 at KPC-2 β-lactamase was less than 100 nM; in assay [1], 100 to 1000 nM; at SHV-5 β-lactamase, less than 100 nM; against p99 AmpC β-lactamase, less than 100 nM; on OXA-1 β-lactamase it was less than 100 nM.
On to `O=C(N[C@H]1Cc2cccc(C(=O)O)c2OB1O)c1ccc2c(c1)CCNC2` [Example 5, (R)-3-(2-borono-2-(1,2,3,4-tetrahydroisoquinoline-6-carboxamido)ethyl)-2-hydroxybenzoic acid], for which the IC50 at KPC-2 β-lactamase is less than 100 nM; in assay [1] it was 100 to 1000 nM; against SHV-5 β-lactamase, less than 100 nM; against p99 AmpC β-lactamase, less than 100 nM; on OXA-1 β-lactamase, less than 100 nM.
As to `CN1CCc2c(C(=O)N[C@H]3Cc4cccc(C(=O)O)c4OB3O)csc2C1` [Example 6, (R)-2-hydroxy-3-(6-methyl-4,5,6,7-tetrahydrothieno[2,3-c]pyridine-3-carboxamido)-3,4-dihydro-2H-benzo[e][1,2]oxaborinine-8-carboxylic acid], the IC50 on KPC-2 β-lactamase was less than 100 nM; in assay [1], 1000 to 10000 nM; at SHV-5 β-lactamase, less than 100 nM; on p99 AmpC β-lactamase, less than 100 nM; on OXA-1 β-lactamase it was less than 100 nM.
Consider `CN1CCc2cc(C(=O)N[C@H]3Cc4cccc(C(=O)O)c4OB3O)ccc2C1` [Example 7, (R)-2-hydroxy-3-(2-methyl-1,2,3,4-tetrahydroisoquinoline-6-carboxamido)-3,4-dihydro-2H-benzo[e][1,2]oxaborinine-8-carboxylic acid], for which the IC50 at KPC-2 β-lactamase is less than 100 nM; in assay [1], 100 to 1000 nM; on SHV-5 β-lactamase, less than 100 nM; on p99 AmpC β-lactamase it was less than 100 nM; at OXA-1 β-lactamase, 100 to 1000 nM.
As to `O=C(O)c1cccc2c1OB(O)[C@@H](NC(=O)c1c[nH]c3ncccc13)C2` [Example 8, (R)-2-hydroxy-3-(1H-pyrrolo[2,3-b]pyridine-3-carboxamido)-3,4-dihydro-2H-benzo[e][1,2]oxaborinine-8-carboxylic acid], the IC50 on KPC-2 β-lactamase is 100 to 1000 nM; in assay [1], 1000 to 10000 nM; against SHV-5 β-lactamase, less than 100 nM; against p99 AmpC β-lactamase, less than 100 nM.
`O=C(N[C@H]1Cc2cccc(C(=O)O)c2OB1O)c1ccc2c(c1)CNC2` [Example 9, (R)-2-hydroxy-3-(isoindoline-5-carboxamido)-3,4-dihydro-2H-benzo[e][1,2]oxaborinine-8-carboxylic acid]: the IC50 (at KPC-2 β-lactamase; in assay [1]; at SHV-5 β-lactamase; at p99 AmpC β-lactamase; at OXA-1 β-lactamase) was less than 100 nM in each case.
`CN1Cc2ccc(C(=O)N[C@H]3Cc4cccc(C(=O)O)c4OB3O)cc2C1` [Example 10, (R)-2-hydroxy-3-(2-methylisoindoline-5-carboxamido)-3,4-dihydro-2H-benzo[e][1,2]oxaborinine-8-carboxylic acid]: the IC50 (at KPC-2 β-lactamase; in assay [1]; against SHV-5 β-lactamase; on p99 AmpC β-lactamase; on OXA-1 β-lactamase) was less than 100 nM each time.
In the case of `NCCN1Cc2ccc(C(=O)N[C@H]3Cc4cccc(C(=O)O)c4OB3O)cc2C1` [Example 11, (R)-3-(2-(2-aminoethyl)isoindoline-5-carboxamido)-2-hydroxy-3,4-dihydro-2H-benzo[e][1,2]oxaborinine-8-carboxylic acid], the IC50 was less than 100 nM on KPC-2 β-lactamase; 100 to 1000 nM in assay [1]; less than 100 nM at SHV-5 β-lactamase; less than 100 nM against p99 AmpC β-lactamase; less than 100 nM at OXA-1 β-lactamase.
In the case of `O=C(N[C@H]1Cc2cccc(C(=O)O)c2OB1O)c1ccc2c(c1)CN(Cc1cccnc1)C2` [Example 12, (R)-2-hydroxy-3-(2-(pyridin-3-ylmethyl)isoindoline-5-carboxamido)-3,4-dihydro-2H-benzo[e][1,2]oxaborinine-8-carboxylic acid], the IC50 on KPC-2 β-lactamase was less than 100 nM; in assay [1], 100 to 1000 nM; at SHV-5 β-lactamase it was less than 100 nM; against p99 AmpC β-lactamase it was less than 100 nM; on OXA-1 β-lactamase, less than 100 nM.
Regarding `O=C(Cc1cnc2c(c1)CCCN2)N[C@H]1Cc2cccc(C(=O)O)c2OB1O` [Example 13, (R)-2-hydroxy-3-(2-(5,6,7,8-tetrahydro-1,8-naphthyridin-3-yl)acetamido)-3,4-dihydro-2H-benzo[e][1,2]oxaborinine-8-carboxylic acid], the IC50 at KPC-2 β-lactamase was 100 to 1000 nM; in assay [1], 1000 to 10000 nM; against SHV-5 β-lactamase, less than 100 nM; against p99 AmpC β-lactamase, less than 100 nM; on OXA-1 β-lactamase, less than 100 nM.
In the case of `NCc1ccc(C(=O)N[C@H]2Cc3cccc(C(=O)O)c3OB2O)cc1CN` [Example 14, (R)-3-(3,4-bis(aminomethyl)benzamido)-2-hydroxy-3,4-dihydro-2H-benzo[e][1,2]oxaborinine-8-carboxylic acid], the IC50 on KPC-2 β-lactamase was 100 to 1000 nM; in assay [1] it was less than 100 nM; at SHV-5 β-lactamase, 100 to 1000 nM; on p99 AmpC β-lactamase it was less than 100 nM; at OXA-1 β-lactamase, less than 100 nM.
On to `NC1=Nc2cc(C(=O)N[C@H]3Cc4cccc(C(=O)O)c4OB3O)ccc2CN1` [Example 15, (R)-3-(2-amino-3,4-dihydroquinazoline-7-carboxamido)-2-hydroxy-3,4-dihydro-2H-benzo[e][1,2]oxaborinine-8-carboxylic acid], for which the IC50 at KPC-2 β-lactamase was 100 to 1000 nM; in assay [1], 1000 to 10000 nM; on SHV-5 β-lactamase it was less than 100 nM; at p99 AmpC β-lactamase it was less than 100 nM; on OXA-1 β-lactamase it was 100 to 1000 nM.
`N=C(N)N1Cc2ccc(C(=O)N[C@H]3Cc4cccc(C(=O)O)c4OB3O)cc2C1` [Example 16, (R)-3-(2-carbamimidoylisoindoline-5-carboxamido)-2-hydroxy-3,4-dihydro-2H-benzo[e][1,2]oxaborinine-8-carboxylic acid]: the IC50 (at KPC-2 β-lactamase; in assay [1]; on SHV-5 β-lactamase; on p99 AmpC β-lactamase; on OXA-1 β-lactamase) was less than 100 nM throughout.
